Broadly, the melting point is the temperature of the solid-liquid transition.

The compound `CCOC(=O)C(=CN(C)C)C(=O)c1cc2cc(F)c(F)c(F)c2nc1Cl` showed a melting point of 118 °C.

The compound `CC(=C(C#N)C(=O)c1ccc(F)cc1)N(C)C` registered a melting point of 65 to 67 °C.

Take `CS(=O)(=O)Nc1ccc(N)cn1`: the melting point was in the range of 199 to 202 °C.

As to `CN(C)c1ccc(C=Cc2ccc(S(=O)(=O)CCCCCCCCCCCO)cc2)cc1`, the melting point was 153 to 155 °C.

In turn, `COC(=O)COc1c(Br)cc(-c2c3ccccc3c(Br)c3sc4ccccc4c23)cc1Br` registered a melting point of 183 to 184 °C.

For the compound `O=P(CN(O)CP(=O)(OCc1ccccc1)OCc1ccccc1)(OCc1ccccc1)OCc1ccccc1`, the melting point was in the range of 71 to 73 °C.

On to `O=C(O)c1c(Cc2cc3c(cc2Cl)OCO3)c(-c2ccccn2)nn1CC1CCCCC1`, for which the melting point came out at 238 °C.

The compound `O=C1c2c(Cl)cccc2-n2cnc(C(=O)n3ccnc3)c2[C@@H]2CCCN12` displayed a melting point of 240 to 242 °C.

`COC(=O)C1=C(c2ccc3c(c2)OCO3)c2ccc(OCc3ccccc3)cc2C1=O`: the melting point was in the range of 140 to 141 °C.

For `Cc1ccc(N2C(=O)C(O)=C(C(=O)c3ccc(-c4ccccc4)cc3)C2c2ccc(OC(F)(F)F)cc2)nn1` (stereo unspecified), the melting point was 226 to 232 °C.

`CN1CCC2(CC1)NC(=S)N(c1ccc(C#N)c(C(F)(F)F)c1)C2=N`: the melting point was > 264 °C.

Compound `COc1ccc(O)c(C2(CCCCSC)Sc3ccccc3N(C)C2=O)c1` (stereo unspecified) returned a melting point of 148 to 150 °C.

With `N#CCCNC(=O)c1ccnc(-c2cccc3oc(Cc4cccc(C(F)(F)F)c4)cc23)c1`, the melting point was in the range of 114 to 115 °C.

The compound `CCCCC(CC)C(=O)Nc1ccc2c(/C=C/C(=O)O)cn(Cc3ccc(C(=O)NS(=O)(=O)c4ccccc4)cc3OC)c2c1` (stereo unspecified) showed a melting point of 200 to 201 °C.

Consider `C=C(C)C(=O)NOC(=O)C(=C)C`, for which the melting point is 55 °C.

Compound `Cc1nc(Cl)c2c(n1)c(C)nn2C` registered a melting point of 91 to 93 °C.

For `CC(C)(C)OC(=O)Nc1cc(OCc2ccccc2)c2ncccc2c1`, the melting point was 180 to 181 °C.

As to `O=C(Oc1ccccc1)N1CCC2(CC1)c1ccccc1Oc1ccccc12`, the melting point fell in the range of 105 to 107 °C.

Consider `COc1cnccc1CCCOc1cccnc1Oc1cccc(Br)c1`, for which the melting point lay within 134 to 136 °C.

With `CCCCCCCCCCCCCCCCCC1OC1C` (stereo unspecified), the melting point amounted to 40 °C.

For the compound `[N-]=[N+]=Nc1nc(N)nc2nc[nH]c12`, the melting point was > 260 °C.

With `CCc1c2c(nn1-c1ccccc1)c(Cl)nc1ccccc12`, the melting point lay in the range of 207 to 209 °C.

`O=c1c(-c2ccccc2)cc([N+](=O)[O-])c2n1CCc1ccsc1-2` had a melting point of 180 to 182 °C.

In turn, `CN1CC(CCCl)Oc2ccc(Cl)cc2C1=S` (stereo unspecified) displayed a melting point of 102 to 104 °C.

`CSc1nc(Br)cc(Br)n1` displayed a melting point of 82 to 84 °C.

In turn, `c1ccc2c(c1)nc(NC1CCCC1)c1nncn12` showed a melting point of 257 to 260 °C.

`CC(C)(N)c1ccc(-c2nc(Nc3ccc(F)cc3)ncc2C#N)cc1` showed a melting point of 228 to 229 °C.

With `Cc1cccc(Oc2cccc(NC(=O)c3ccn4c3CSC4c3cccnc3)c2)c1` (stereo unspecified), the melting point came to 149 °C.

For `COc1cc(OC(C)C(=O)O)c2c3c(C(N)=O)cccc3n(Cc3ccccc3)c2c1` (stereo unspecified), the melting point fell in the range of 170 to 172 °C.

In turn, `CC(=O)Oc1ccc(-c2ccc3cc(OC(C)=O)ccc3c2)cc1` gave a melting point of 178 to 180 °C.

Consider `Cc1cc(SC(C)C)c(NC(=O)CN2CCN(CCSc3nc4ccccc4[nH]3)CC2)c(SC(C)C)n1`, for which the melting point fell in the range of 186 to 188 °C.

In turn, `Cc1ccc(Cn2c(=O)c3c(Cl)cc(Cl)cc3n(Cc3ccccc3)c2=O)o1` came in with a melting point of 159 to 161 °C.

For the compound `O=C(CCc1ccccc1)c1c(O)c2cccnc2n(-c2ccccc2)c1=O`, the melting point was 233 to 234 °C.

`CCOC(=O)c1cn(CC)c2cc(C3CCCCC3)ccc2c1=O` registered a melting point of 176 to 178 °C.

In turn, `Oc1cc2cc(-c3ccccc3Cl)sc2c(Cl)c1Cl` yielded a melting point of 174 to 175 °C.

With `Cn1cc(-c2cccc(Cl)c2)c(=S)c(-c2cccc(Cl)c2)c1`, the melting point lay within 210 to 212 °C.

Turning to `O=C(CCl)c1ccc2c(c1)[nH]c1ccccc12`, the melting point lay within 203 to 204 °C.

For `O=C(NO)[C@H]1CN(C(=O)NC2CCCCC2)CCN1S(=O)(=O)c1ccc(-c2ccc(F)cc2)s1`, the melting point lay within 111 to 123 °C.

In the case of `COC(=O)c1cccc(CN2CCN(c3nc(C)c(C(=O)NCc4ccccc4)s3)C2=O)c1`, the melting point lay within 49 to 51 °C.

Regarding `CCCNC(=O)C1(CC=Cc2ccc([N+](=O)[O-])cc2)c2ccccc2-c2ccccc21`, the melting point lay in the range of 143 to 146 °C.

Consider `Cc1nn(C)c2c1N(C(=O)CN(C(C)C)C(C)C)c1ccccc1NC2=O`, for which the melting point was 154 to 156 °C.

Compound `CN1CCc2cc(S(=O)(=O)NC(=O)Nc3ccc(Cl)cc3)ccc21` registered a melting point of 145 to 147 °C.

Compound `COc1ccc(CNc2cc(-c3cc4cc(F)c(F)cc4[nH]3)ccc2OC)cc1` gave a melting point of 173 to 175 °C.

For `Cc1c(Cc2cccc(C(F)(F)F)c2)oc2c(-c3cccc(C(=O)NCCO)c3)cccc12`, the melting point lay within 158 to 159 °C.

For the compound `Cc1ccc2c(c1)C(=O)N(CC(=O)N1c3ccccc3N(Cc3ccccc3)C(=O)[C@H]3CCC[C@H]31)C2=O` (relative stereo), the melting point was 237 to 238 °C.

On to `OC(CNCCNc1ccc(Cl)nn1)COc1ccccc1` (stereo unspecified), for which the melting point was in the range of 147 to 149 °C.

As for `COc1ccc(Nc2nc(C)ncc2S(=O)(=O)c2ccc(OCc3ccccc3)cc2)c(C)c1`, the melting point was 110 to 114 °C.

As for `O=c1ccc(S(=O)(=O)c2cc3cccc(Cl)c3[nH]2)n[nH]1`, the melting point was 248 to 250 °C.

`CCCO[C@@H]1[C@@H](OC)[C@H](C)O[C@@H](OC(=O)Nc2ccc(-c3ncn(-c4ccc(OC(F)(F)C(F)(F)F)cc4)n3)cc2)[C@@H]1OC` returned a melting point of 158 °C.

Consider `Cc1nc(N)nc(N)c1C=CC(C)(C)c1ccc(Cl)cc1`, for which the melting point was 195 to 200 °C.

Compound `Cc1ccc(-c2cn3cc([N+](=O)[O-])ccc3n2)cc1` came in with a melting point of 205 to 206 °C.

In the case of `CCNC(=O)CCc1cnoc1-c1ccccc1`, the melting point was in the range of 75 to 76 °C.

In turn, `CCOCCCOC(C)Cc1ccc(-c2ccc(O)cc2)cc1` (single isomer, unassigned; (-)) registered a melting point of 53 to 55 °C.

`Cc1cc(CCc2c(Br)c(C)c(O)c(C)c2Br)c(Br)c(C)c1O` came in with a melting point of 249 to 255 °C.

Regarding `COCCOc1nc(NC(C)=O)nc2ccc(Cl)nc12`, the melting point was found to be 135 °C.

Consider `Cc1nc(N2CCNCC2)nc(N2CCS(=O)(=O)CC2)c1[N+](=O)[O-]`, for which the melting point was 208 to 211 °C.

Compound `COc1ccc(-c2cc(=O)n(CC3CC3)nc2-c2ccc(OC)cc2)cc1` yielded a melting point of 129 °C.

`CCOCc1nc2c(N)nc3cc(OCCc4c[nH]c5ccccc45)ccc3c2n1CC(C)(C)O` had a melting point of 220 to 222 °C.

The compound `NCc1ccccc1N` came in with a melting point of 58 to 61 °C.

`[N-]=[N+]=Nc1c([N+](=O)[O-])cnn1-c1c(Cl)cc(C(F)(F)F)c(Cl)c1Cl`: the melting point was 84 to 88 °C.

With `COCCCn1c(O)nc2ccc(C(F)(F)F)cc21`, the melting point lay within 83 to 84 °C.

For the origin of these results see a melting point compilation (Tetko et al.; mined from patent text by program, amines drawn as free bases though some values may be those of a salt).
